# Assay results as given in US20120190751A1, “COMPOUNDS FOR TREATMENTS OF INFLAMMATION” (ANA-MAR AB, priority 2009, published 2012).
# “Also recorded” adds a separate entry of the source.
# Tests used:
# 5-HT4 receptor = biological target: T1, 5-HT4 receptor (Cavia porcellus, UniProt O70528); experiment: Radio-ligand binding assay 5-HT4; design: species or system Guinea pig
# T1 construct: tissue or cells expressing the receptor of interest were suspended in incubation buffer; from tissue; host or cells: guinea-pig tissue (which tissue is not visible)
# Method: Determination of binding affinities for various 5-HT receptors was performed by radio-ligand binding assays. Briefly, tissue or cells expressing the receptor of interest were suspended in incubation buffer and radio-ligands and 10 μM N-(2-chloro-3,4-dimethoxybenzylidene-amino)guanidine were added. After incubation, separation of bound and free radio-ligand was done by multiple washings with buffer.
# The results were presented as the percent inhibition of specific binding. The IC50 values were determined by a non-linear least square regression analysis using MathIQ™ (ID Business Solution Ltd., UK). The inhibition constants (Ki) were calculated using the equation of Cheng and Prusoff (Cheng Y, Prusoff W H, Biochem. Pharmacol. 22:3099-3108, 1973) using the observed IC50 of the tested compound, the concentration of radioligand employed in the assay and the historical values for the KD of the ligand.
# rat synoviocytes = experiment: IL-6 release from LPS-stimulated rat synoviocytes; assay type: cell-based; conditions: 72 hours
# Method: Pannus from the inflamed knee of rats with antigen-induced arthritis (AIA) (see description of this model below; Andersson, S. E et al., (1998), J. Rheumatology 25: 1772-1777) was isolated three to five days after challenge, stored in PBS supplemented with 100 U/ml Penicillin-Streptomycin (PEST, Invitrogen Corporation) and 2.5 μg/ml Fungizone (Amphotericin B, Invitrogen) until it was further processed within a couple of hours. The PBS was discarded and the tissue cut in small pieces followed by digestion in a collagenase solution (400 U/ml; type 1 CLS-1, Worthington) for 3 hours at 37° C., 5% CO2. The suspension was filtered through a nylon mesh (70 μm), washed with tissue culture medium (RPMI-1640 with L-glutamine, Invitrogen, supplemented with 10% fetal bovine serum (FBS) and 100 U/ml PEST and 2.5 μg/ml Fungizone) and centrifuged (257 g). The cells were resuspended in tissue culture medium and seeded in cell culture flasks (T25, TPP). After overnight culture, nonadherent cells were removed by exchanging the medium, the cells were incubated at 37° C., 5% CO2, the medium was exchanged every third day until confluence was reached (7-10 days). The culture consisted of a mixed cell population with the principal constituents being fibroblasts and macrophages (Andersson, S. E. et al. (2000), Eur. J. Pharm. Sci 9: 333-343).
# The cells were counted and reseeded at a density of 10000 cells/0.2 ml in 96-well cell culture plates (Nunc). After overnight culture the cells were stimulated with 50 ng/ml Lipopolysaccharide (LPS, E. coli 055:B5, Sigma) with simultaneous addition of 0.1, 1 and 10 μM N-(2-chloro-3,4-dimethoxybenzylideneamino)guanidine and 1 μM of 5-HT2 receptor agonists (triplicates). The cells were incubated for 72 hours after which the supernatants were collected and analyzed for IL-6 (OptEIA™ Set Rat IL-6). The effect of treatment on cell viability was determined using the cell proliferation reagent, WST-1 (Roche Diagnostics).
# Inflamed knee joints of rats with antigen-induced arthritis (AIA) were dissected four days after intra-articular challenge with antigen. Freshly isolated pannus tissue was collected in phosphate-buffered saline (PBS) supplemented with 100 U/ml penicillin, streptomycin (PEST, Invitrogen) and 2.5 μg/ml Fungizone (Amphotericin B, Invitrogen), finely minced with a pair of scissors and digested with 400 U/ml collagenase (type 1 CLS-1, Worthington) in RPMI 1640 (Gibco) supplemented with PEST and fungizone (2.5 μg/ml) for 3 hours. The cell suspension was filtered through a 70 μm nylon mesh and the cells collected by centrifugation at 257×g, 10 min. The cells were resuspended in RPMI 1640 supplemented with 10% FBS (Gibco), PEST and fungizone (culture medium), plated in T25 flasks (TPP Cat#90026). After overnight incubation nonadherent cells were removed and the culture medium was replaced every third day until the cells approached confluency (normally achieved within 7-10 days). At near-confluency, the cells were washed with PBS and harvested by trypsination. After washing in PBS the cells were resuspended in culture medium and seeded at 10.000 cells/well/0.2 ml in 96 well plates (Nunc cat#167008). After overnight culture the culture medium was replaced with fresh medium and 50 ng/ml LPS (Sigma, L6529) together with different concentrations of 5-HT, 5-HT2 receptor agonists and/or antagonists and N-(2-chloro-3,4-dimethoxybenzylideneamino)guanidine. The cells were incubated for 72 hours after which the supernatants were collected and analyzed for IL-6 (BD OptEIA™ Set). The effect of treatment on cell viability was determined using the cell proliferation reagent, WST-1 (Roche Diagnostics). In another experiment rat synoviocytes were incubated with 50 ng/ml LPS for 2 or 22 hours were after the levels of 5-HT was analysed in the cell culture medium using a Serotonin ELISA kit (IBL International, RE59121). We also incubated rat synoviocytes with 5-HT (10 μM) and measured the gene expression of 5-HT2B and 5-HT2C.
# 5-HT2B receptor = biological target: T2, 5-HT2B receptor (Rattus norvegicus, UniProt P30994); experiment: 5-HT2B tissue assay (functionality, rat stomach fundus contraction); assay type: cell-based; conditions: FIG. 2, read-out: IC50, antagonistic effect on 5-HT2B
# T2 construct: induces contraction in the rat stomach fundus from Wistar rats; from tissue; host or cells: rat (Wistar) stomach fundus
# Method: (Cohen M L, Fludzinski L A. Contractile serotonergic receptor in rat stomach fundus. J. Pharmacol. Exp. Ther. (1987 October); 243(1):264-269.)
# FIG. 2. Antagonistic effect of N-(2-chloro-3,4-dimethoxybenzylideneamino)guanidine on 5-HT2B and 5-HT2C receptors. The functionality of the compound was evaluated with the 5-HT2B tissue assay and the 5-HT2C GTPγS binding assay methods.
# N-(2-chloro-3,4-dimethoxybenzylideneamino)guanidine was further tested for functionality against 5-HT2B (Cohen et al. (1987), J. Pharmacol. Exp. Ther. 243:264-269), 5-HT2C (Adlersber M, et al. (2000), J. Neurosci. Res. 61(6):674-685; Cussac D. et al. (2002), Mol. Pharmacol. 62(3):578-589) and 5-HT4 (Reeves et al. (1991), Br. J. Pharmacol. 103:1067-1072).
# T1 sequence (O70528 whole entry): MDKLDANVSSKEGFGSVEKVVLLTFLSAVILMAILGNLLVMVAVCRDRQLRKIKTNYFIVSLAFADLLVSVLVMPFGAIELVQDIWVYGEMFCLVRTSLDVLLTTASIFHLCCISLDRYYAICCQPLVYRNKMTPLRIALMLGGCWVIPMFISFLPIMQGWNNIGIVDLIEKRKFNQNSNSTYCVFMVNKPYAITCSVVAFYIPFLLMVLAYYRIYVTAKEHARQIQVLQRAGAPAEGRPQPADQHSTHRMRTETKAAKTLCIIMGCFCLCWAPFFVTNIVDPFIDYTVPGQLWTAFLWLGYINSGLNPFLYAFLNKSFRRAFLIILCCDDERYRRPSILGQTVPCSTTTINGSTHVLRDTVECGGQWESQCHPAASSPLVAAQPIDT
# T2 sequence (P30994 whole entry): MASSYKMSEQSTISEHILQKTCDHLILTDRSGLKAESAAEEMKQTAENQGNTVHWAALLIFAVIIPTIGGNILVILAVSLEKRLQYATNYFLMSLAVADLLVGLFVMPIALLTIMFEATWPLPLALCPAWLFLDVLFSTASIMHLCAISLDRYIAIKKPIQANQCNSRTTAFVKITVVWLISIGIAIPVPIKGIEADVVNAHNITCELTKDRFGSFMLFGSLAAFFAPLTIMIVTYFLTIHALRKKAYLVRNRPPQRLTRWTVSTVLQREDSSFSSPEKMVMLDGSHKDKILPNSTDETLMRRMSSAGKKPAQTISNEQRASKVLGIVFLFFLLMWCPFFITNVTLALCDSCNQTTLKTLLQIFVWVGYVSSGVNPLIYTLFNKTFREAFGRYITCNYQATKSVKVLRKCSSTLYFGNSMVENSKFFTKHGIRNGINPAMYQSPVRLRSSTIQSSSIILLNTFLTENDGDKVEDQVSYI
smiles,measurement,setting,value
"COc1ccc(C=NNC(=N)N)c(Cl)c1OC [N-(2-chloro-3,4-dimethoxybenzylideneamino)guanidine]",inhibition at 10 µM,"5-HT4 receptor; 10 μM compound, [3H] GR113808 0.2 nM, guinea pig striata",99%
same,Ki,"5-HT4 receptor; 10 different concentrations, Cheng-Prusoff, FIG. 1",0.276 µM
same,IL-6 release induced by 5-HT and LPS,"rat synoviocytes; 1 μM 5-HT + LPS 50 ng/ml, test substance 0.1, 1 or 10 μM, FIG. 7A",reduces the IL-6 response
same,IL-6 production induced by BW 723C86 (5-HT2B agonist) and LPS,"rat synoviocytes; 1 μM BW 723C86 + LPS 50 ng/ml, compound 0.1, 1, 10 μM, FIG. 4, FIG. 7B",in a dose-dependent way is counteracted; also recorded: reversed the effects
same,IL-6 production induced by CP 809101 (5-HT2C agonist) and LPS,"rat synoviocytes; 1 μM CP 809101 + LPS 50 ng/ml, compound 0.1, 1, 10 μM, FIG. 4, FIG. 7B",is counteracted; also recorded: reversed the effects
same,IC50,5-HT2B receptor,61.7 µM
